The assay concerns the target T1, EspJ28-217 (Escherichia coli, UniProt B7ULW8).
T1 construct: gene E2348C_0723; residues 28-217, lacking N-terminal secretion signal; 15N-labelled for NMR
As to the kind of experiment: 1H-15N HSQC NMR titration. Format: binding. The note with it: 0.25 mM 15N-labelled protein, 1 or 10 molar equivalents of NAD+; 50 mM NaPO4 pH 7.4, 200 mM NaCl, 5 mM beta-mercaptoethanol, 10% D2O, 295 K; also ADP-ribose donor with GST-Src (150 uM NAD+ and labelle).

T1 sequence (B7ULW8 entry or part of it): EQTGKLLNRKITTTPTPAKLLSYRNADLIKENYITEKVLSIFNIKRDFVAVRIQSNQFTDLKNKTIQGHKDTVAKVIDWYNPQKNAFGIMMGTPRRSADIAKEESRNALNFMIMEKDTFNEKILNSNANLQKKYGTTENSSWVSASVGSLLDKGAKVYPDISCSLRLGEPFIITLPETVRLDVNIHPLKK

On to `NC(=O)c1ccc[n+]([C@@H]2O[C@H](COP(=O)(O)OP(=O)(O)OC[C@H]3O[C@@H](n4cnc5c(N)ncnc54)[C@H](O)[C@@H]3O)[C@@H](O)[C@H]2O)c1` [NAD^+], for which the chemical shift perturbation entry is “The addition of NAD^+ caused substantial chemical shift perturbations for several resonances”.

For the origin of these results see publication PMC4284639, “The Escherichia coli effector EspJ blocks Src kinase activity via amidation and ADP ribosylation” (Nature Communications, 2014).
